Experimental data: patent US20240351988A1, “ARYL HYDROCARBON RECEPTOR MODULATORS AND THEIR USE IN THE TREATMENT OF DISEASES AND DISORDERS” (Allianthera (Suzhou) Biopharmaceutical Co., Ltd., priority 2021, published 2024)

Columns and labels:
[1] = biological target: T1, Human Aryl Hydrocarbon Receptor (AhR) (Homo sapiens, UniProt P35869); assay: AHR antagonist reporter assay in human cell line (INDIGO AhR Reporter Assay System, kynurenic acid activated); type: cell-based; settings: 200 μM kynurenic acid, 24 hours, luciferase; read-out: AhR Reporter Assay KA Antagonist Mode: IC50
T1 construct: purchased INDIGO Bioscience #1B06001-32; host or cells: AhR Reporter Cell (kit's proprietary reporter cells)
T1 sequence (P35869 11-848): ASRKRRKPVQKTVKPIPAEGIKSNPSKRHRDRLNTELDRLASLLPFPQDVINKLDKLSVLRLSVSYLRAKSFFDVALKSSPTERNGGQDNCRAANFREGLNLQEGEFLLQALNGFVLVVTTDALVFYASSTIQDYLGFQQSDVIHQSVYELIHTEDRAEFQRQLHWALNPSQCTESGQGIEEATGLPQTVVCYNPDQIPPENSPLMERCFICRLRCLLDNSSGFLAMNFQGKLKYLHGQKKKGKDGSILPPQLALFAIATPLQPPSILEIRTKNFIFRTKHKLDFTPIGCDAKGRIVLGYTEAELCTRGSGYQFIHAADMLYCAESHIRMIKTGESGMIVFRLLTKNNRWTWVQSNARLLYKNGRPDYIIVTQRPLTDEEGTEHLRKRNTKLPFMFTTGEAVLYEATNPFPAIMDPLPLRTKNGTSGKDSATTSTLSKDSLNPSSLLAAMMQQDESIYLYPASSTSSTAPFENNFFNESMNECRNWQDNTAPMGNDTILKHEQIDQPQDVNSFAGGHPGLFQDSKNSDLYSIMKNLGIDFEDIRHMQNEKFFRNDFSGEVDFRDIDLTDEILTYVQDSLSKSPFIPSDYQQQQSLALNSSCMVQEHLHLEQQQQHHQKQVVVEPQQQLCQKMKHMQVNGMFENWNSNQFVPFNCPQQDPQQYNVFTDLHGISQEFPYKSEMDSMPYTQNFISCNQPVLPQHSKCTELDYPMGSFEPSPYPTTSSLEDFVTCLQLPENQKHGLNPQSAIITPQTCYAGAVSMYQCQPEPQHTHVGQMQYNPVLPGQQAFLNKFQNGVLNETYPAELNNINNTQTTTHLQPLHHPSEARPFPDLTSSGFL
Description: The AhR reporter assay was performed following the protocol of the Human Aryl Hydrocarbon Receptor (AhR) Reporter Assay System (INDIGO Bioscience, #1B06001-32). AhR Reporter Cell was thawed and pre-incubated in Cell Recovery Medium (CRM) for 6 hours. The media was then removed and the cells were incubated with Compound Screening Medium (CSM) supplemented with 200 μM kynurenic acid for 24 hours in the absence (negative control) or presence of increasing concentrations of test compounds (typical dilution: […], 3.2 nM, 16 nM, 80 nM, 400 nM, 2 μM, 10 μM in duplicates). For positive inhibition control, cells activated with 200 μM kynurenic acid were incubated in the presence of literature AHR antagonists; alternatively un-activated cells were used as positive inhibition control. Following 24 hours incubation, the media was removed and Luciferase Detection Reagent (LDR) added. The firefly luciferase activity was quantified using a plate reader. Results were normalized by positive and negative controls.

[2] = system: AHR-regulated gene CYP1A1 in human monocytic U937 cell line; assay: AHR-regulated CYP1A1 expression in U937 cells (qPCR, kynurenic acid stimulated); type: cell-based; settings: U-937, 200 μM KA, 16 hours, CYP1A1 vs GAPDH, read-out: Cyp ANATAG mode assay: IC50
Description: To evaluate the AHR inhibitory activity of the test compounds, quantitative PCR analysis was used to determine expression level of the AHR-regulated gene CYP1A1 in a human monocytic U937 cell line upon stimulation of 200 μM kynurenic acid (KA) in the absence or presence of AHR inhibitor. U937 cells were seeded at a concentration of 5×10^5 cells/well in 200 μL of growth medium in 96-well cell culture microplates. CYP1A1 expression was induced with 200 μM KA (positive control) in the absence or presence of the test compounds for 16 hours. Human U937 cells were typically incubated with eight different concentrations of test compounds (typical dilution: […], 3.2 nM, 16 nM, 80 nM, 400 nM, 2 μM, 10 μM) and analyzed in duplicate on the same cell culture microplate. After stimulation, the media was removed, the cell RNA was isolated using RNeasy Mini Kit (Qiagen, 74104) and reverse-transcribed to cDNA using PrimeScript RT reagent Kit (Perfect Real Time) (TaKaRa, RR037A). Unstimulated cells were used as the negative control. Taqman probes for human CYP1A1 (Hs01054797_g1) and human GAPDH (Hs02786624_g1) were used to analyze fold expression of CYP1A1 of GAPDH.

IC50 [1] [nM]	IC50 [2] [nM]	Compound
< 100	< 100	CNC(=O)[C@H](C)NC(=O)c1cc(-c2ccc(Cl)cc2)nn(-c2cccc(F)c2)c1=O [Compound 98]
< 100	100 to 400	CNC(=O)[C@H](C)NC(=O)c1cc(-c2cnc(-c3ccc(Cl)cc3)nc2)nn(-c2cnn(C)c2)c1=O [Compound 181]
< 100	< 100	C[C@@H](CO)NC(=O)c1cc(-c2cnc(-c3ccc(Cl)cc3)nc2)nn(-c2cnn(C)c2)c1=O [Compound 163]
< 100	< 100	COCC(C)NC(=O)c1cc(-c2ccc(Cl)cc2)nn(-c2cnn(C)c2)c1=O (centres unmarked) [Compound 32]
< 100	100 to 400	COC[C@H](C)NC(=O)c1cc(-n2cc(-c3ccc(Cl)cc3)cn2)nn(-c2cnn(C)c2)c1=O [Compound 155]
< 100	< 100	C[C@@H](CO)NC(=O)c1cc(-c2ccc(-c3cccc(F)c3)nc2)nn(-c2cnn(C)c2)c1=O [Compound 191]
< 100	< 100	COC[C@H](C)NC(=O)c1cc(-c2ccc(-c3ccc(Cl)cc3)nc2)nn(-c2cnn(C)c2)c1=O [Compound 156]
< 100	< 100	COC[C@H](C)NC(=O)c1cc(-c2cnc(-c3ccc(Cl)cc3)nc2)nn(-c2cnn(C)c2)c1=O [Compound 139]
< 100	< 100	C[C@H](NC(=O)c1cc(-c2ccc(-c3ccc(Cl)cc3)nc2)nn(-c2cnn(C)c2)c1=O)C(=O)N(C)C [Compound 177]
< 100	< 100	CN(C)C(=O)C(C)(C)NC(=O)c1cc(-c2ccc(Cl)cc2)nn(-c2cnn(C)c2)c1=O [Compound 94]
< 100	< 100	CCc1ccc(-c2cc(C(=O)N[C@@H](C)CO)c(=O)n(-c3cnn(C)c3)n2)cc1 [Compound 201]
100 to 400	100 to 400	CNC(=O)C(C)NC(=O)c1cc(-c2ccc(Cl)cc2)nn(-c2cccc(F)c2)c1=O (centres unmarked) [Compound 12]
< 100	< 100	CNC(=O)C(C)(C)NC(=O)c1cc(-c2ccc(Cl)cc2)nn(-c2cnn(C)c2)c1=O [Compound 95]
< 100	< 100	C[C@@H](CO)NC(=O)c1cc(-c2ccc(-c3ccccc3)nc2)nn(-c2cnn(C)c2)c1=O [Compound 185]
< 100	< 100	C[C@@H](CO)NC(=O)c1cc(-c2ccc(-c3ccc(Cl)cc3)cc2)nn(-c2cnn(C)c2)c1=O [Compound 148]
< 100	< 100	C[C@@H](CO)NC(=O)c1cc(-c2cnc(-c3ccccc3F)nc2)nn(-c2cnn(C)c2)c1=O [Compound 194]
< 100	< 100	C[C@@H](CO)NC(=O)c1cc(-c2ccc(-c3ccc(Cl)cc3)nc2)nn(-c2cnn(C)c2)c1=O [Compound 157]

Second part, the compound before the results:

Compound	IC50 [1] [nM]	IC50 [2] [nM]
CC(C)c1ccc(-c2cc(C(=O)N[C@@H](C)CO)c(=O)n(-c3cnn(C)c3)n2)cc1 [Compound 202]	< 100	< 100
C[C@@H](CO)n1cnc2c(-c3cnn(C)c3)nc(-c3cnc(-c4ccc(F)cc4)nc3)cc2c1=O [Compound 200]	< 100	< 100
COC[C@H](C)NC(=O)c1cc(-c2ccc3c(c2)OCC3)nn(-c2cnn(C)c2)c1=O [Compound 112]	< 100	100 to 400
COC[C@H](C)NC(=O)c1cc(-c2ccc(C(C)C)cc2)nn(-c2cnn(C)c2)c1=O [Compound 206]	< 100	< 100
COC[C@H](C)NC(=O)c1cc(-c2cc3ccccc3cn2)nn(-c2cnn(C)c2)c1=O [Compound 153]	< 100	< 100
CN1CCCC[C@H](NC(=O)c2cc(-c3ccc(C(F)(F)F)nc3)nn(-c3cnn(C)c3)c2=O)C1=O [Compound 172]	< 100	< 100
COC[C@H](C)NC(=O)c1cc(-c2ccc(Cl)cc2)nn(-c2cccc(F)c2)c1=O [Compound 97]	< 100	< 100
CN1CCCC[C@H](NC(=O)c2cc(-c3ccc(OC(F)(F)F)cc3)nn(-c3cnn(C)c3)c2=O)C1=O [Compound 165]	< 100	< 100
C[C@H](NC(=O)c1cc(-c2ccc(Cl)cc2)nn(-c2cccc(F)c2)c1=O)C(=O)N(C)C [Compound 99]	< 100	< 100
C[C@@H](CO)NC(=O)c1cc(-c2ccc(C3CCOCC3)cc2)nn(-c2cnn(C)c2)c1=O [Compound 197]	100 to 400	100 to 400
COC[C@H](C)NC(=O)c1cc(-c2ccc3cc(F)ccc3c2)nn(-c2cnn(C)c2)c1=O [Compound 120]	< 100	< 100
O=C(N[C@H]1CCCCNC1=O)c1cc(-c2ccc(Cl)cc2)nn(-c2cccc(F)c2)c1=O [28 - *stereo-pure]	< 100	< 100
CN(C)C(=O)C(C)(C)NC(=O)c1cc(-c2ccc(OC(F)(F)F)cc2)nn(-c2cnn(C)c2)c1=O [Compound 168]	< 100	100 to 400
Cc1nn(C)c2cc(-c3cc(C(=O)N[C@@H](C)C(=O)N(C)C)c(=O)n(-c4cnn(C)c4)n3)ccc12 [Compound 176]	< 100	100 to 400
C[C@@H](CO)NC(=O)c1cc(-c2ccc(C3CCCCC3)cc2)nn(-c2cnn(C)c2)c1=O [Compound 198]	< 100	< 100
C[C@@H](CO)NC(=O)c1cc(-c2cnc(-c3ccc(F)cc3)nc2)nc(-c2cnn(C)c2)n1 [Compound 199]	< 100	< 100
CNC(=O)C(C)(C)NC(=O)c1cc(-c2ccc(C(F)(F)F)cc2)nn(-c2cnn(C)c2)c1=O [Compound 173]	< 100	< 100
Cn1cc(-n2nc(-c3ccc(Cl)cc3)cc(C(=O)N[C@H]3CCCCNC3=O)c2=O)cn1 [59 - *stereo-pure]	< 100	< 100
C[C@H](NC(=O)c1cc(-c2ccc(C(F)(F)F)cc2)nn(-c2cnn(C)c2)c1=O)C(=O)N(C)C [Compound 150]	< 100	< 100
C[C@@H](CO)NC(=O)c1cc(-c2ccc(C(C)(C)C)cc2)nn(-c2cnn(C)c2)c1=O [Compound 203]	< 100	< 100
COC[C@H](C)NC(=O)c1cc(-c2ccc3c(C)nn(C)c3c2)nn(-c2cnn(C)c2)c1=O [Compound 123]	< 100	< 100
CCc1ccc(-c2cc(C(=O)N[C@@H](C)COC)c(=O)n(-c3cnn(C)c3)n2)cc1 [Compound 204]	100 to 400	< 100
CN1CCCC[C@H](NC(=O)c2cc(-c3ccc(C(F)(F)F)cc3)nn(-c3cnn(C)c3)c2=O)C1=O [Compound 164]	< 100	< 100
C[C@@H](CO)NC(=O)c1cc(N2CCC(c3ccc(F)cc3)CC2)nn(-c2cnn(C)c2)c1=O [Compound 207]	> 400	100 to 400
COC[C@H](C)NC(=O)c1cc(-c2ccc(C(=O)N(C)C)cc2)nn(-c2cnn(C)c2)c1=O [Compound 90]	< 100	< 100
C[C@H](NC(=O)c1cc(-c2ccc(OC(F)(F)F)cc2)nn(-c2cnn(C)c2)c1=O)C(=O)N(C)C [Compound 146]	< 100	< 100
